Here are results for 13 molecules from PubChem BioAssay (NCI).

Some test systems named below: P388 leukemia; P388/ADR leukemia; SN12K1 renal; ACHN renal; LXFL 529 NSCLC; RXF-631 renal; 786-0 renal; BT-549 breast; DU-145 prostate; HS 578T breast; MDA-MB-231 breast; MDA-MB-435; PC-3 prostate; T-47D breast.
Assay in all cases: NCI tumour cell line growth inhibition, 48 h

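All cell lines were grown in 96-well plates and treated with compound for 48 hours. The concentration for 50% growth inhibition is given as GI50. At the TGI there is no net growth.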

Regarding `c1ccc2c(c1)SCCc1cn[nH]c1-2`, the TGI with P388 leukemia, with P388/ADR leukemia and in the assay on SN12K1 renal was greater than 100 µM each time.

Consider `O=S(O)CCCSSSCCCS(=O)O`, for which the TGI in the assay with ACHN renal, in the assay on LXFL 529 NSCLC and in the assay with RXF-631 renal was greater than 100 µM each time.

As to `CSCC(CO)NC(=O)/C=C/c1c(C)[nH]c(=O)[nH]c1=O` (stereo not drawn), the TGI in the assay on P388 leukemia, in the assay on P388/ADR leukemia and with SN12K1 renal was greater than 875 µM each time.

Take `Nc1ccc(Cn2ccc3c4c(N)nc(N)nc4ccc32)cc1`: the TGI with 786-0 renal turned out to be 16.4 µM; in the assay with ACHN renal it was 6.58 µM; in the assay with BT-549 breast, 16.4 µM; with DU-145 prostate, 14.3 µM; in the assay on HS 578T breast, 7.32 µM; with LXFL 529 NSCLC, 15.7 µM. Further, the TGI with MDA-MB-231 breast is 3.48 µM; in the assay on MDA-MB-435, 6.15 µM; in the assay with PC-3 prostate, 16.8 µM; with T-47D breast it was 6.18 µM.

Take `c1ccc2c(c1)SP1Sc3ccccc3P21` (stereo not drawn): the TGI with P388 leukemia, with P388/ADR leukemia and with SN12K1 renal was greater than 100 µM in each case.

For `S=c1[nH]n2c(COc3ccc(Cl)cc3)nnc2s1`, the TGI with 786-0 renal, in the assay on ACHN renal, in the assay on DU-145 prostate, with MDA-MB-231 breast, in the assay on MDA-MB-435 and in the assay with PC-3 prostate was greater than 100 µM throughout. This molecule also returned a TGI in the assay with T-47D breast greater than 100 µM.

As for `CC1(C)N=C(c2ccccc2)SC12S[C@@H]1CCCC[C@H]1S2`, the TGI with ACHN renal was greater than 100 µM; with BT-549 breast, greater than 100 µM; in the assay on DU-145 prostate it was greater than 100 µM; in the assay on HS 578T breast it was 16.8 µM; with MDA-MB-231 breast, greater than 100 µM; in the assay with MDA-MB-435 it was greater than 100 µM. Further, the TGI with PC-3 prostate and in the assay on T-47D breast was greater than 100 µM throughout.

Consider `CN(C)c1cccc(OC(=O)NCCCl)c1`, for which the TGI with P388/ADR leukemia and in the assay on SN12K1 renal was greater than 100 µM in each case.

Regarding `COCCNCc1ccc(-c2cc3nccc(Oc4ccc(NC(=O)C5(C(=O)Nc6ccc(F)cc6)CC5)cc4F)c3s2)nc1`, the GI50 with DU-145 prostate is 2.06 µM; with HS 578T breast, 1.06 µM; in the assay on MDA-MB-435, 1.31 µM; with PC-3 prostate, 1.81 µM; with T-47D breast, 2.01 µM. The TGI in the assay on DU-145 prostate turned out to be 4.51 µM; in the assay with HS 578T breast, 4 µM; with MDA-MB-435, 2.68 µM; with PC-3 prostate it was 5 µM; in the assay with T-47D breast it was 6.29 µM.

On to `Cc1cccc2c1Sc1ccccc1C2NC(=O)CN(C)C` (stereo not drawn), for which the TGI in the assay on ACHN renal and with LXFL 529 NSCLC was greater than 100 µM throughout.

For `CO/C=C1\OC(=O)C=C1OC`, the TGI with P388 leukemia, in the assay with P388/ADR leukemia and in the assay on SN12K1 renal was greater than 100 µM each time.

For `c1csc(-c2ccc(CNc3c4ccccc4nc4ccccc34)cc2)c1`, the GI50 is 3.87 µM in the assay on BT-549 breast; 1.65 µM in the assay on DU-145 prostate; 0.322 µM with MDA-MB-435; 1.08 µM with PC-3 prostate; 13.6 µM in the assay on T-47D breast. In addition, the TGI in the assay with BT-549 breast came out at 14.1 µM; in the assay on DU-145 prostate, 3.07 µM; in the assay on MDA-MB-435 it was 1.09 µM; in the assay with PC-3 prostate, 2.47 µM; in the assay on T-47D breast, 55.6 µM.

With `CN(c1ccccc1)c1nc(=[N+]2CCCC2)ss1`, the TGI in the assay on 786-0 renal, in the assay on ACHN renal, with LXFL 529 NSCLC and in the assay with RXF-631 renal was greater than 100 µM in each case.
